Data on two compounds can be found in US20240238228A1, “COMPOSITIONS AND METHODS FOR TREATING ALLERGIES AND INFLAMMATORY CONDITIONS” (UNIVERSITY OF PITTSBURGH-OF THE COMMONWEALTH SYSTEM OF …, priority 2021, published 2024).

What all share (type): cell-based, murine
The subject of assay [1] is PMCs. As to the kind of experiment: IgE+Ag-activated PMCs: cytokine release (ELISA). Also noted: detectible levels of IL-10 / levels of IL-13: dose or concentration left out as unconfirmed. On the procedure:
Mast cells were differentiated from murine bone marrow as has been described. In brief, marrow was expunged from the femurs and tibias of female mice. Cultures were maintained in complete MC/9 medium containing recombinant murine IL-3 (25 ng/mL, Peprotech) for 4-6 weeks prior to use. Peritoneal MCs (PMCs) were expanded from peritoneal washes with MC/9 medium supplemented with IL-3 (25 ng/mL) and SCF (Peprotech, 10 ng/mL) for 21 days. Purity of BMMCs and PMCs was confirmed to be greater than 95% (FIG. 8A). To initiate signaling via the FcεRI, MCs were loaded with IgE (1.0 μg/ml, clone SPE-7, Sigma) for a minimum of 1 h then crosslinked with dinitrophenyl-human serum albumin (DNP-HSA, 100 ng/mL or as indicated). NKA (either LifeTein (Summerset, NJ) or Phoenix Pharmaceuticals (Burlingham, CA)) stock solutions were prepared in tissue culture grade water (100 μM) and stored at −20° C. for a maximum of 30 days. Glyburide (Cayman Chemical) was prepared in DMSO then diluted in PBS. Calpain activity was detected from cell-free supernatants using the Calpain-Glo Protease Assay (Promega). Supernatants were incubated with substrate for 10 min prior to luminescent detection. In some experiments, glyburide or vehicle (0.1% DMSO) were added to cells 10 min prior to Ag. ELISA kits from eBioscience (IL-13), BioLegend, (TNF and IL-10) or RayBiotech (NKA) and used in accord with the manufacturer's recommendations.
On the technique in general: In an ELISA, binding on a coated surface is turned into a signal by an enzyme label.

A further assay concerns BMMCs. In words: Avidin / LAMP-1 surface staining of activated BMMCs. Set-up: effect on LAMP-1^+ and avidin^+ BMMCs: dose or concentration left out as unconfirmed. On the procedure: (§1) MCs were collected and washed with PBS containing 0.5% BSA and 0.1% sodium azide. Non-specific binding was inhibited using FcBlock (PBS with 2.0% goat serum and 0.25 mg/mL anti-CD16/32 (clone 2.4G2, BD Biosciences). Surface staining was done with anti-CD117 eFluor450 (clone 2B8, ThermoFisher), anti-FcεRI FITC (clone MAR-1, ThermoFisher) and anti-ABCA1 Alexa Fluor 647 (clone 5A1-1422, BioRad). Cells were washed with Wash Buffer (PBS with 0.5% BSA and 0.1% sodium azide). To detect differences in granulated proteins at the cell surface, IgE-loaded MCs were activated with DNP-HSA with or without NKA in Tyrode's Buffer for 30 min, washed with Wash Buffer then stained with Avidin Alexa Fluor488 (Invitrogen, Av488, 0.8 μg/5×10^5 cells) and anti-LAMP-1 PE (clone eBio 1D48, ThermoFisher). Data were acquired on either a LSRII or a Fortessa (BD BioSciences). Analysis was performed with FlowJo v10.4 (BD Biosciences).

In assay [2] the test system is PMCs. As to the kind of experiment: Avidin / LAMP-1 surface staining of activated PMCs. Set-up: percentage of LAMP-1^+ and avidin^+ PMCs: dose or concentration left out as unconfirmed. On the procedure:
as §1

Another assay concerns calpain. As to the kind of experiment: Calpain activity in cell-free supernatants of activated BMMCs. On the procedure: Calpain activity was detected from cell-free supernatants using the Calpain-Glo Protease Assay (Promega). Supernatants were incubated with substrate for 10 min prior to luminescent detection. In some experiments, glyburide or vehicle (0.1% DMSO) were added to cells 10 min prior to Ag. ELISA kits from eBioscience (IL-13), BioLegend, (TNF and IL-10) or RayBiotech (NKA) and used in accord with the manufacturer's recommendations.

The next assay deals with IL-10. As to the kind of experiment: IL-10 degradation assays on BMMC supernatants. On the procedure: To detect early IL-10 release, 4×10^6 cells were incubated in serum free RPMI for a minimum of three hours prior to IgE loading and activation with DNP-HSA (100 ng/mL). Supernatants were collected and IL-10 was detected in accord with manufacturer's recommendations using 1.0% BSA to block and a top standard of 250 pg/mL. The lower limit of detection was 7.8 pg/mL. To evaluate the role of relationship between calpain and IL-10, cell-free supernatants were collected 10 min after activation and incubated with Ac-calpastatin (Ac-Cal; 20 μg/mL, Cayman) or vehicle control. […] To directly test IL-10 proteolysis, MCs were activated for 45 min, cell free supernatants were collected and pulsed with recombinant IL-10 (Biolegend, 250 pg/mL).

Setting [3] is: control Mcpt5Cre^+×IL10^WT PMCs.
[4] abbreviates: increasing concentrations of glyburide 10 min prior to activation, supernatants 30 min after activation.

As to Neurokinin A [NKA], in the assay on PMCs [1] (setting [3]), the IL-13 release entry is “inhibited” and the TNF release entry is on record as “inhibited”. In addition, the “effects of NKA on IL-13 and TNF release” value in the assay on PMCs [1] (without PMC-derived IL-10 (Mcpt5Cre^+×IL10^fl/fl)) is listed as “reversed”. The “avidin^+ granules and LAMP-1 on the cell surface” value with BMMCs (30 min after activation, with or without NKA) was “equivalent amounts”. Moreover, the “percentage of avidin^+ and LAMP-1V PMCs” value with PMCs [2] (30 min after activation, compared to control) was “reduced the percentage”. The extracellular calpain activity result in the assay with calpain (IgE+Ag with or without NKA for 60 min) is recorded as “significantly downregulated”. Also, the “early IL-10 in supernatants” value in the assay on IL-10 (60 min after activation with NKA) is “significantly more IL-10”. For the same compound, the “degradation of early IL-10 / pulsed rIL-10 by released proteases” value with IL-10 (cell-free supernatants pulsed with rIL-10 for 30 min) was “disrupted”.
For the compound `COc1ccc(Cl)cc1C(=O)NCCc1ccc(S(=O)(=O)NC(=O)NC2CCCCC2)cc1` [glyburide, reference compound], in the assay with PMCs [1] (glyburide 50 mM, 20-24 h in culture), the “levels of TNF” value is given as “decreased”. Also, in the assay on PMCs [1] (glyburide, 20-24 h in culture), the “detectible levels of IL-10” value is “increased” and the “levels of IL-13” value is given as “decreased”. Besides, the “effect on LAMP-1^+ and avidin^+ BMMCs” value in the assay with BMMCs (IgE-activated 30 minutes) is on record as “less robust effect”. In addition, the “percentage of LAMP-1^+ and avidin^+ PMCs” value in the assay with PMCs [2] (IgE-activated 30 minutes) was “reduced the percentage”. In addition, the calpain activity entry with calpain (setting [4]) is given as “reduced”. The IL-10 levels result with IL-10 (setting [4]) was “increasing”.
